The nature of series [1]: In vitro stability in the plasma. The series is classed as in vitro ADME. As to conditions: rat plasma, 10 μL ANA-TA9 PBS solution (0.1 mg/mL or 1 mg/mL) added to 90 μL plasma, 37 °C, methanol deproteinization, LC/MS, three experiments. As to the method: (§1) After the anesthetization of rats with an i.p. application of the anesthetic mixture, the cerebrospinal fluid (CSF) was collected by cisternal puncture, followed by the collection of whole blood from the polyethylene cannula inserted into the right femoral artery. The blood was heparinized and centrifuged at 15,000 rpm for 10 min at 4 °C, and the supernatant was collected as plasma.
(§2) ANA-TA9 was dissolved in PBS at a concentration of 0.1 mg/mL or 1 mg/mL. Immediately before the incubation, 5 μL or 10 μL of the ANA-TA9 solution was added to 45 μL or 90 μL of CSF or plasma, respectively. Similarly, 10 μL of the ANA-TA9 solution was added to 90 μL of whole blood. At predetermined times after the incubation at 37 °C, the samples were cooled by placing them on ice. Methanol (1 mL) was added to the plasma and whole blood for deproteinization. The mixtures were then vortexed and centrifuged at 15,000 rpm for 5 min at 4 °C. […] The concentrations of ANA-TA9 in the plasma and whole blood were measured by LC/MS. The ANA-TA9 concentrations were measured in the CSF samples by LC/MS without any treatments.
(§3) Chromatographic separation was performed using a C18 analytical column (TSKgel ODS 100V, 3 μm, 2.0 mm × 100 mm; TOSOH, Tokyo, Japan). […] ANA-TA9 eluting from the column was detected with mass spectrometry under the positive mode. […] The calibration curves of ANA-TA9 in the plasma and the brain were determined.

Series [2] in a line: In vitro stability in the whole blood. The series is classed as in vitro ADME, rat. As to the method:
as §1
ANA-TA9 was dissolved in PBS at a concentration of 0.1 mg/mL or 1 mg/mL. Immediately before the incubation, 5 μL or 10 μL of the ANA-TA9 solution was added to 45 μL or 90 μL of CSF or plasma, respectively. Similarly, 10 μL of the ANA-TA9 solution was added to 90 μL of whole blood. At predetermined times after the incubation at 37 °C, the samples were cooled by placing them on ice. Methanol (1 mL) was added to the plasma and whole blood for deproteinization. The mixtures were then vortexed and centrifuged at 15,000 rpm for 5 min at 4 °C. The supernatant was transferred to tubes and evaporated to dryness. The residue was reconstituted with 100 μL of the mobile phase of LC/MS mentioned below. The concentrations of ANA-TA9 in the plasma and whole blood were measured by LC/MS. The ANA-TA9 concentrations were measured in the CSF samples by LC/MS without any treatments.
Chromatographic separation was performed using a C18 analytical column (TSKgel ODS 100V, 3 μm, 2.0 mm × 100 mm; TOSOH, Tokyo, Japan). The mobile phase was acetonitrile/0.1% acetic acid (10/90), and the flow rate was 0.2 mL/min. ANA-TA9 eluting from the column was detected with mass spectrometry under the positive mode. Nitrogen gas was used for nebulization at a flow rate of 1.5 L/min. Other conditions (temperature and voltage) were set as the default. The calibration curves of ANA-TA9 in the plasma and the brain were determined.

A short description of series [3]: In vitro stability in the cerebrospinal fluid. The series is classed as in vitro ADME. Conditions: cerebrospinal fluid (CSF), rat CSF, 37 °C, LC/MS without treatment, three experiments. The protocol:
as §1, §2, §3

Series [4] is described as follows: in vivo. Set-up: species or system male Wistar/ST rats. Conditions: male, Wistar/ST, rat, 2 mg. The protocol:
ANA-TA9 diluted in PBS was administered to the left nostril of male Wistar/ST rats (n = 3) at a dose of 2 mg (20 μL of 100 mg/mL). For the comparison, i.v. administration served as the control for i.n. administration. The same dose of ANA-TA9 ([…] of a 10 mg/mL PBS solution) was administered into the left femoral vein of 3 rats. CSF was collected 10 min after i.n. administration by cisternal puncture. An incision was made in the skin over the occipital bone, and the first layer of the muscle was cut. The sharp end of a 25-G needle connected to PE-50 tubing (1 m length) was carefully inserted into the cisterna magna. CSF was withdrawn into the tubing with a disposable syringe. Collection was terminated as soon as blood appeared in the tubing. CSF in the tubing was ejected into a ProteoSave SS 1.5 mL microtube (Sumitomo Bakelite Co., Ltd., Tokyo, Japan) and frozen at −40 °C. The CSF volumes ranged between 100 and 150 μL (n = 6). The plasma and brain concentrations of ANA-TA9 were determined by LC/MS, LC-20A, and LCMS-2020 (SHIMADZU, Kyoto, Japan). Briefly, 100 μL of the plasma were mixed with 1000 μL of methanol. […] To the dissected brain tissue, 100 μL of ice-cold purified water were added, and the mixture was homogenized under ice-cold conditions. To the homogenate, 4000 μL of ice-cold methanol were added. […] The residues were reconstituted with 100 μL of the mobile phase of the chromatography. In the preliminary study, it was confirmed that the effect of rapid degradation of ANA-TA9 on the assay could be excluded by the treatment on the blood and brain tissues mentioned above. Chromatographic separation was performed using a C18 analytical column (TSKgel ODS 100V, 3 μm, 2.0 mm × 100 mm; TOSOH, Tokyo, Japan). The mobile phase was acetonitrile/0.1% acetic acid (10/90), and the flow rate was 0.2 mL/min. ANA-TA9 eluting from the column was detected with mass spectrometry under the positive mode. Nitrogen gas was used for nebulization at a flow rate of 1.5 L/min. […] The calibration curves of ANA-TA9 in the plasma and the brain were determined.

Series [5] deals with Aβ42. As to conditions: also three Aβ fragment peptides, particularly Aβ11–29; cited from earlier work. The text has this:
Recently, we reported the proteolytic activity of the shorter synthetic peptides JAL-TA9 (YKGSGFRMI) and ANA-TA9 (SKGQAYRMI), derived from the Box A region of the Tob1 and ANA/BTG3 proteins. These peptides cleave Aβ42 and three Aβ fragment peptides, particularly Aβ11–29 originating from the central region, which is considered the core region of Aβ42 aggregation/oligomerization. We gave these peptides the general name Catalytide. Catalytides such as JAL-TA9 and ANA-TA9 are attractive candidate peptide drugs for a novel strategy for preventing and treating AD.

Ends that are not written are not given here.

Regarding SKGQAYRMI [ANA-TA9], the “concentration of ANA-TA9 in the plasma at 5 min after the start of the incubation” value in series [1] was determined as 20000 ng/mL. For the same sequence, the “initial concentration in the whole blood” value in series [2] (rat whole blood (heparinized), 10 μL ANA-TA9 solution added to 90 μL, 37 °C, time 0, LC/MS, three experiments) is reported as 80 µg/mL. For the same sequence, the “concentration of ANA-TA9 in the whole blood 5 min after the start of the incubation” value in series [2] (rat whole blood, 10 μL ANA-TA9 solution added to 90 μL, 37 °C, 5 min, LC/MS, three experiments) was determined as 20000 ng/mL. For the same sequence, the “initial concentration in the whole blood, % of the expected value” in series [2] (rat whole blood, time 0, LC/MS) is 80%. Also, the remaining at 0.5 h in series [3] (5 μL ANA-TA9 PBS solution (0.1 mg/mL or 1 mg/mL) added to 45 μL CSF, 30 min, read-out: CSF concentration remaining at 30 min after the start of the incubation) was 74%. Besides, the remaining at 2 h in series [3] (5 μL ANA-TA9 PBS solution added to 45 μL CSF, 2 h, read-out: CSF concentration remaining at 2 h after the start of the incubation) came out at 46%. Also, the level at 10 min in series [4] (inhaled or intranasal, CSF concentration 10 min after i.n. administration) was determined as 72 ± 6 ng/mL; in series [4] (inhaled or intranasal, plasma concentration 10 min after i.n. administration), 24 ± 5 ng/mL; in series [4] (iv, plasma concentration 10 min after i.v. administration) it was 10 ± 1 ng/mL. Moreover, in series [5], the “cleavage of Aβ42 (proteolytic activity)” value is listed as “cleave Aβ42”.

Source of the values: publication PMC8538057, “Direct Delivery of ANA-TA9, a Peptide Capable of Aβ Hydrolysis, to the Brain by Intranasal Administration” (Pharmaceutics, 2021).
